The melting point is the temperature of the solid-liquid transition.

Molecules are shown by their SMILES.

These results are taken from a melting point compilation (Tetko et al.; mined from patent text by program, amines drawn as free bases though some values may be those of a salt).

As to `CN(CCCNc1ncc(Cc2ccc(Cl)cc2)c(=O)[nH]1)c1ccccn1`, the melting point worked out at 65 °C.
In the case of `CCCCCCCCCCC(=O)C(=O)N[C@@H](CCCC)CCC(=O)O` it was 50 to 52 °C; in that of `Cc1ccc(N2C(=O)c3ccccc3NC2c2ccc(=O)[nH]c2)cc1C(F)(F)F` (stereo not drawn), 250 to 251 °C; in that of `Cc1cc(-c2ccc(C(F)(F)F)nc2)nc(-c2ccnc(-c3ccc(S(N)(=O)=O)s3)c2)n1`, 289 °C.
`ClCCCc1cc2cccnc2[nH]1` had a melting point of 75 °C.
In the case of `CCOC(=O)c1ccc(N2CCC(NCC(O)COc3ccc(N=Nc4ccc([N+](=O)[O-])cc4)nc3)CC2)nc1` (stereo not drawn) it was 172 °C.
The result for `CN1CCC(=C2c3ccccc3Sc3ccc(SC(F)(F)F)cc32)CC1` reads 104 to 106 °C; that for `CNC(=O)c1cnn(C)c1C(=O)Nc1ccn2nc(-c3ccccc3)nc2c1`, more than 250 °C.
For `CC(=O)c1ccc(CCCOc2c(C)cc(N3CN=C(C(F)F)O3)cc2C)nn1`, the melting point is 95 to 96 °C.
In the case of `COC(=O)c1c2n(c3ccccc13)Cc1ccccc1N1CCN(C)CC21` (stereo not drawn) it was 157 to 159 °C.
In the case of `O=C(N[C@H]1CC[C@H](CCN2CCC(c3cccc4c3CCO4)CC2)CC1)c1ccc(N2CCCCC2)cc1`, the melting point came out at 248 °C.
In turn, `O=c1ccc(Br)cn1CC1(O)CCN(Cc2ccccc2)CC1` yielded a melting point of 146 to 148 °C.
In the case of `COC(=O)COc1c(Br)cc(-c2c3ccccc3c(Br)c3sc4ccccc4c23)cc1Br` it was 183 to 184 °C.
In the case of `O=C(CBr)c1ccc(Cl)c(Cl)c1Cl` it was 44 to 46 °C; in that of `Nc1cccc(S(=O)(=O)Nc2nncs2)c1`, 155 to 158 °C.
For `O=[N+]([O-])c1c(Br)c(Br)cc2c1OC(F)(F)C(F)(F)O2`, the melting point fell in the range of 91 to 92 °C.
In the case of `C=CC1CCC(C2CCC3c4ccc(OCC)c(F)c4OC3C2)CC1` (stereo not drawn) it was 132 °C; in that of `CC1=CC(O)C(OC(=O)c2ccccc2Cl)C(C)(C)CC1=O` (stereo not drawn), 92.5 to 94 °C; in that of `CC(=O)OCCOC(=O)C1=C(C)NC(C)=C([N+](=O)[O-])C1c1ccccc1Cl` (stereo not drawn), 158 to 160 °C.
In the case of `NC1=NN(c2ccc(Cl)cn2)C(c2ccccc2)C1` (stereo not drawn) it was 142 to 147 °C.
In the case of `CCOC(=O)c1ccc(N(Cc2ccc(Cl)cc2)C(=O)OCC)cc1` it was 43 to 46 °C; in that of `N#CSc1ccc(N)c(C(=O)c2ccccn2)c1`, 102 to 104 °C.
Turning to `CCOc1cc(C=[N+]([O-])C(C)(C)CC(C)(C)C)ccc1OC`, the melting point turned out to be 77.5 °C.
`CC1(C)OC(CCN)CC(CC(=O)O)O1` (stereo not drawn) gave a melting point of 165 °C.
In the case of `CSC1NC(=O)N(c2ccc(Cl)c(Cl)c2)C(=O)N1N=C(C)C` (stereo not drawn) it was 181 to 182 °C.
`CCN(CC)C(=O)c1cc(-c2ccc(C)cc2)nc2ccccc12` had a melting point of 52 °C.
The result for `COc1ccc(C#N)c(F)c1O` reads 198 to 200 °C; that for `Cc1c(-c2ccc3cn[nH]c3c2)cc(Nc2ccc(N3CCOCC3)cn2)c2nccn12`, 160 to 164 °C; that for `COc1ccc2c(c1OC)CN(Cc1ccccc1)CCc1cc3c(cc1CC2)OCO3`, 75 to 78 °C.
The result for `COc1cccc(C(=O)Nc2ccc(C(C)=O)cc2)c1` reads 152 to 154 °C.
In turn, `CCc1nn2c(N3CCN(C)CC3)ccnc2c1S(=O)(=O)c1ccccc1` came in with a melting point of 206 to 207 °C.
`CSCCCn1c(C)c(C(=O)c2cccc(Cl)c2Cl)c2cccc(Cl)c21`: the melting point was 87 °C.
The result for `CC(=O)Oc1c(C)c2c(c3ccccc13)OCC2c1ccc(C(C)C)cc1` (stereo not drawn) reads 109 to 110 °C; that for `CCCCCCCCNC(=O)Nc1ccc(Nc2ccc(N(CC)CCNS(C)(=O)=O)cc2C)c2ccccc12`, 132 to 133 °C.
In the case of `O=C(Nc1nccs1)c1cn(-c2ccccc2)c2ccccc2c1=O` it was 290 °C; in that of `O=C(O)CCCOc1cc(C(F)(F)F)cc(C(F)(F)F)c1`, 85 to 87 °C; in that of `CNC(CNC(=O)c1nc(Cl)c(N)nc1N)CC(=O)NCCN` (stereo not drawn), 106 to 109 °C.
In turn, `COc1ccc(C[C@H]2CC[C@@H]3[C@@H](CCC(=O)N3Cc3ccccc3)C2)cc1` came in with a melting point of 118 to 119 °C.
The result for `N#Cc1nn(-c2c(Cl)cc(C(F)(F)F)cc2Cl)cc1C1CC(=O)C1` reads 127 °C; that for `O=[N+]([O-])c1cc2nc(O)c(O)nc2c2[nH]ncc12`, more than 300 °C.
The result for `COC(=O)C1=C(C)NC(C)=C(C(=O)OCCN2CCN(c3ccccc3OC)CC2)C1c1cccc([N+](=O)[O-])c1` (stereo not drawn) reads 58 °C.
Take `Cc1c(NC(=O)c2ccc(-c3ccc(Cl)s3)cc2)ccc2cc(CN3CCCCCC3)cnc12`: the melting point lay within 186 to 187 °C.
In the case of `Cc1ccc(S(=O)(=O)N2CC3C(C2)C3Nc2ncc3cc(-c4ccccc4Cl)c(=O)n(C4CC4)c3n2)cc1` (stereo not drawn) it was 265 to 274 °C.
`COC(=O)NC(CCc1ccc(Cl)cc1)C(=O)O` (stereo not drawn) showed a melting point of 113 to 114 °C.
The result for `CC(C)(C)Oc1ccc(CCC(=O)O)cc1` reads 29 to 31 °C.
The result for `Cc1ccc(S(=O)(=O)n2ccc3cc(Br)ccc32)cc1` reads 135 °C; that for `C[C@]1(CN2CCC(c3ccccc3)CC2)Cn2cc([N+](=O)[O-])nc2O1`, 159 to 164 °C.
In the case of `N#Cc1cc(O)ccc1[N+](=O)[O-]` it was 200 to 202 °C; in that of `CC1CN(c2c(F)cc3c(=O)c(C(=O)O)cn(C4CC4)c3c2Cl)CC1N` (stereo not drawn), 231 to 234 °C.
Take `CCCCCCc1ccc(-c2ccc(-c3ncc(C(=O)OCC)c(O)n3)cc2)cc1`: the melting point was in the range of 91.6 to 91.9 °C.
The result for `O=C(O)c1cccc(-c2cccc3c2OC(Cc2cccc(C(F)(F)F)c2)C3)c1` (stereo not drawn) reads 156 to 157 °C; that for `NC(=O)N1C(=O)C(=C(OCOC(=O)COCC(=O)OCc2ccccc2)c2cccs2)c2cc(F)c(Cl)cc21`, 122 °C.
As for `CC(C)CC(=O)Nc1cccc(-c2ccnc3c(-c4ccc(Cl)c(Cl)c4)cnn23)c1`, the melting point was in the range of 215 to 217 °C.
Regarding `CCCn1c2c(c3ccccc3c1=O)C(=O)c1ccccc1-2`, the melting point is 166 to 167 °C.
Take `CC(=O)NCCOc1nc(-c2ccc(F)cc2C)c2ccc(=O)n(-c3c(F)cccc3F)c2n1`: the melting point was 75 to 79 °C.
In the case of `CCOC(=O)/C=C/C=C/c1ccc(OCc2nc(-c3ccccc3)oc2C)cc1` it was 137 to 138 °C; in that of `COC(=O)c1ccc(-c2cc(C)n(Cc3ccccc3)n2)o1`, 65 to 66 °C.
The result for `O=C1CS[C@@H]2[C@H](NC(=O)Cc3ccccc3)C(=O)N2C1` reads 183 °C; that for `Cc1cc(C#N)nc(Cl)n1`, 57 °C; that for `CC(C)(C)c1ccc(C(=O)Nc2cn3cc(-c4ncc[nH]4)ccc3n2)cc1`, 300 to 301 °C.
Compound `CC(C)c1cccc(C(C)C)c1NC(=O)CN1CC2(CCCCC2)N(c2ccccc2)CC1=O` displayed a melting point of 158 to 160 °C.
In the case of `CC(C)(C)C(=O)c1ccc(C(=O)O)cc1` it was 160 to 162 °C; in that of `CCCC(C)(CCl)c1cc(Cl)nnc1Cl` (stereo not drawn), 68 to 69 °C.
In the case of `Nc1c(-c2cc(Cl)ccc2O)c2cc(C(F)(F)F)ccc2[nH]c1=O` it was 233 to 235 °C; in that of `Cc1c(O)cccc1C(=O)N[C@@H](Cc1ccccc1)[C@H](O)C(=O)N1CSC(C)(C)[C@H]1C(=O)N[C@H]1CCSc2ccccc21`, 125 to 127 °C; in that of `CCC(Oc1ccc(-n2nnc3cc(C(F)(F)F)ccc32)cc1)C(=O)O` (stereo not drawn), 122 to 125 °C.
The result for `CSc1nnc(N(C(=O)CCl)c2c(C)cccc2C)n1C` reads 145 to 147 °C.
`CCN(CC)c1nc(Nc2ccc3cc(-c4ccccc4)c(=O)oc3c2)nc(N2CCCC(CO)C2)n1` (stereo not drawn) displayed a melting point of 182 to 183 °C.
In the case of `CC(C)(C)OC(=O)NCCCCNOC(=O)c1ccccc1` it was 113 to 114 °C.
In the case of `COc1ccccc1N1CCN(CCCn2c(=O)[nH]cc(C)c2=O)CC1`, the melting point is 168 to 170 °C.
Turning to `Cc1ccc(CS(=O)C2=C(O)CC(C)(C)CC2=O)cc1` (stereo not drawn), the melting point lay within 89 to 90.5 °C.
In the case of `Cc1cnnc2c1C(=O)CC(c1cc(Cl)sc1Cl)C2` (stereo not drawn) it was 137 to 138 °C; in that of `COc1ccc(C2S(=O)(=O)CCCS2(=O)=O)cc1OC`, 243 to 245 °C.
The result for `Cc1noc(-c2cnc(NC(=O)[C@H](CC3CCCC3)c3ccc(S(C)(=O)=O)c(Cl)c3)cn2)n1` reads 101 to 105 °C; that for `O=C1Cc2cc(NC(=O)C(=O)N3CCC(Oc4ccccc4)CC3)ccc2N1`, 78 to 81 °C; that for `Cc1nc(Cl)c2c(n1)c(C)nn2C`, 91 to 93 °C.
In the case of `Cc1ccc(S(=O)(=O)Nc2ccc(-c3ccc(S(=O)(=O)n4ccc(C=CC(=O)NO)c4)cc3)cc2)cc1`, the melting point fell in the range of 119 to 126 °C.
As to `C(=C\c1cccs1)/c1ncon1`, the melting point turned out to be 78 °C.
In turn, `COc1ccccc1CN1CCc2cc(OCc3ccccc3)c(OC)cc2C1` displayed a melting point of 85 to 86 °C.
The result for `O=C(O)c1ccc(CCCC2SCC(=O)N2CCC2(O)CCCC2)cc1` (stereo not drawn) reads 149 to 150 °C; that for `C=CCOC(=O)[C@@H]1CCC[C@@H]1C(N)=O` (relative stereo), 35 °C.
`CC=C1CCC(C(=O)OC)C(C(=O)OC)C1` (stereo not drawn) registered a melting point of 162 to 163 °C.
Consider `Cc1ccc(-c2cc([Si](C)(C)C)oc2-c2ccc(Cl)cc2)cc1`, for which the melting point lay within 80 to 84 °C.
The result for `O=Cc1cc([N+](=O)[O-])ccc1C1SCCCS1` reads 99 to 101 °C; that for `CCC(=O)N(C)c1cccc(-c2ccc3nncn3n2)c1`, 146 to 150 °C.
In the case of `CO[C@@H]1C(S(=O)(=O)c2ccccc2)=C[C@H](C)[C@@H](O[Si](C)(C)C(C)(C)C)[C@@H](C)[C@@H]1O[Si](C)(C)C(C)(C)C` it was 94 to 96 °C.
In the case of `Nc1c(Br)cc(Br)cc1S(N)(=O)=O` it was 165 to 169 °C.
In turn, `OCC(O)Cc1cccc(Cc2ccccc2)c1OCc1ccccc1` (stereo not drawn) showed a melting point of 55 to 58 °C.
